Measured values: patent publication US6339045B1, “N-(unsubstituted or substituted)-4-substituted-6-(unsubstituted or substituted)phenoxy-2-pyridinecarboxamides or thiocarboxamides, processes for producing the same, and herbicides” (Kureha Kagaku Kogyo Kabushiki Kaisha, priority 1995, dated 2002)

How the values were obtained:
Experiment in all cases: Herbicidal effect by foliage and soil treatment
Format in all cases: in vivo
Details in all cases: 10 g ai/10a, evaluated after 14 days
[1] = tested on: field bindweed (Convolvulus arvensis)
In short: (§1)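 Read-out: rated growth inhibition relative to non-treated plants 14 days after spraying. Young plants (cotyledon to two leaves) received a foliage-and-soil spray of compound in aqueous Tween 20 at a controlled rate, greenhouse at 19–25 °C.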

[2] = tested on: common blackjack (Bidens pilosa)
In short: as §1

[3] = tested on: wild chamomile (Matricaria chamomilla)
In short: as §1

[4] = tested on: redroot pigweed (Amaranthus retroflexus)
In short: as §1

[5] = tested on: black nightshade (Solanum nigrum)
In short: as §1

[6] = tested on: common chickweed (Stellaria media)
In short: as §1

[7] = tested on: velvetleaf (Abutilon theophrasti)
In short: as §1

[8] = tested on: ivyleafspeedwell (Veronica hederaefolia)
In short: as §1

[9] = tested on: cleavers (Galium aparine)
In short: as §1

[10] = tested on: sicklepod (Cassia obtusifolia)
In short: as §1

[11] = tested on: kediock (Sinapis arvensis)
In short: as §1

| Structure (SMILES) | herbicidal activity rating, CA (Convolvulus arvensis) [1] | herbicidal activity rating, BP (Bidens pilosa) [2] | herbicidal activity rating, MC (Matricaria chamomilla) [3] | herbicidal activity rating, AR (Amaranthus retroflexus) [4] | herbicidal activity rating, SN (Solanum nigrum) [5] | herbicidal activity rating, SM (Stellaria media) [6] | herbicidal activity rating, AT (Abutilon theophrasti) [7] | herbicidal activity rating, VH (Veronica hederaefolia) [8] | herbicidal activity rating, GA (Galium aparine) [9] | herbicidal activity rating, CO (Cassia obtusifolia) [10] | herbicidal activity rating, SA (Sinapis arvensis) [11] |
| --- | --- | --- | --- | --- | --- | --- | --- | --- | --- | --- | --- |
| COc1cc(Oc2cccc(C(F)(F)F)c2)nc(C(=O)NCC(C)C)c1 [Compound I-72] | 5 (percentage of weeds killed was not less than 80%) | 5 (percentage of weeds killed was not less than 80%) | 5 (percentage of weeds killed was not less than 80%) | 5 (percentage of weeds killed was not less than 80%) | 5 (percentage of weeds killed was not less than 80%) | 5 (percentage of weeds killed was not less than 80%) | 4 (percentage of weeds killed was not less than 60% and less than 80%) | 5 (percentage of weeds killed was not less than 80%) | 5 (percentage of weeds killed was not less than 80%) | 5 (percentage of weeds killed was not less than 80%) | 5 (percentage of weeds killed was not less than 80%) |
| COc1cc(Oc2cccc(C(F)(F)F)c2)nc(C(=O)NC(OC)C(F)(F)F)c1 (stereo not drawn) [Compound I-88, N-(1-methoxy-2,2,2-trifluoroethyl)-4-methoxy-6-{3-(trifluoromethyl)phenoxy}-2-pyridine carboxamide] | 5 (percentage of weeds killed was not less than 80%) | 3 (percentage of weeds killed was not less than 40% and less than 60%) | 2 (percentage of weeds killed was not less than 20% and less than 40%) | 5 (percentage of weeds killed was not less than 80%) | 5 (percentage of weeds killed was not less than 80%) | 5 (percentage of weeds killed was not less than 80%) | 5 (percentage of weeds killed was not less than 80%) | 5 (percentage of weeds killed was not less than 80%) | 5 (percentage of weeds killed was not less than 80%) | 5 (percentage of weeds killed was not less than 80%) | 5 (percentage of weeds killed was not less than 80%) |
| COc1cc(Oc2cccc(C(F)(F)F)c2)nc(C(=O)NCC(F)(F)C(F)(F)F)c1 [Compound I-81] | 5 (percentage of weeds killed was not less than 80%) | 5 (percentage of weeds killed was not less than 80%) | 5 (percentage of weeds killed was not less than 80%) | 5 (percentage of weeds killed was not less than 80%) | 5 (percentage of weeds killed was not less than 80%) | 5 (percentage of weeds killed was not less than 80%) | 5 (percentage of weeds killed was not less than 80%) | 5 (percentage of weeds killed was not less than 80%) | 5 (percentage of weeds killed was not less than 80%) | 5 (percentage of weeds killed was not less than 80%) | 5 (percentage of weeds killed was not less than 80%) |
| COc1cc(Oc2cccc(OC(F)(F)F)c2)nc(C(=O)Nc2ccccc2)c1 [Compound I-20, N-phenyl-4-methoxy-6-{3-(trifluoromethoxy)phenoxy}-2-pyridine carboxamide] | 4 (percentage of weeds killed was not less than 60% and less than 80%) | 5 (percentage of weeds killed was not less than 80%) | 4 (percentage of weeds killed was not less than 60% and less than 80%) | 5 (percentage of weeds killed was not less than 80%) | 5 (percentage of weeds killed was not less than 80%) | 5 (percentage of weeds killed was not less than 80%) | 4 (percentage of weeds killed was not less than 60% and less than 80%) | 5 (percentage of weeds killed was not less than 80%) | 5 (percentage of weeds killed was not less than 80%) | 5 (percentage of weeds killed was not less than 80%) | 5 (percentage of weeds killed was not less than 80%) |
| COc1cc(Oc2cccc(C(F)(F)F)c2)nc(C(=O)NCCC#N)c1 [Compound I-71] | 5 (percentage of weeds killed was not less than 80%) | 5 (percentage of weeds killed was not less than 80%) | 4 (percentage of weeds killed was not less than 60% and less than 80%) | 5 (percentage of weeds killed was not less than 80%) | 5 (percentage of weeds killed was not less than 80%) | 5 (percentage of weeds killed was not less than 80%) | 4 (percentage of weeds killed was not less than 60% and less than 80%) | 5 (percentage of weeds killed was not less than 80%) | 5 (percentage of weeds killed was not less than 80%) | 5 (percentage of weeds killed was not less than 80%) | 5 (percentage of weeds killed was not less than 80%) |
| COc1cc(Oc2cccc(C(F)(F)F)c2)nc(C(=O)NOCCF)c1 [Compound I-102] | 4 (percentage of weeds killed was not less than 60% and less than 80%) | 5 (percentage of weeds killed was not less than 80%) | 3 (percentage of weeds killed was not less than 40% and less than 60%) | 5 (percentage of weeds killed was not less than 80%) | 5 (percentage of weeds killed was not less than 80%) | 4 (percentage of weeds killed was not less than 60% and less than 80%) | 4 (percentage of weeds killed was not less than 60% and less than 80%) | 5 (percentage of weeds killed was not less than 80%) | 5 (percentage of weeds killed was not less than 80%) | 5 (percentage of weeds killed was not less than 80%) | 5 (percentage of weeds killed was not less than 80%) |
